In PMC8877291, “Design and Synthesis of Arylpiperazine Serotonergic/Dopaminergic Ligands with Neuroprotective Properties” (Molecules, 2022):
“And” between values parts separate entries of the source, which are not always exact repeats. Identical values can stand only once.

What was measured:
[1] = Cytotoxicity in SH-SY5Y cells (MTT assay); format: cell-based, human; settings: human, SH-SY5Y neuroblastoma cells, MTT, 0.1 to 100 μM, ± S.E.M.
Method: Initially, the cytotoxicity of the target compounds was assessed by treating SH-SY5Y cells for 48 h with various concentrations of compounds (0.1 to 100 μM).
SH-SY5Y neuroblastoma cells (cat. CRL-2266, ATCC) were cultured in a 1:1 mixture of Eagle’s Minimum Essential Medium (cat. 15-010-CVR, Corning) and Ham’s F12 medium (cat. 10-080-CVR, Corning). This medium was supplemented with 10% (v/v) Fetal Bovine Serum (cat. 35-079-CV, Corning), 1% (v/v) Glutamine (cat. ECB3000D, Euro Clone) and 1% (v/v) Penicillin—Streptomycin (cat.30-002-CI, Corning). Cells were cultivated at 37 °C with 5% CO2 at saturated humidity.
Determination of cell growth was performed using the MTT assay at 48 h. On day 1, 25,000 cells/well were seeded into 96-well plates in a volume of 100 μL. On day 2, the various drug concentrations ([…]–100 μM) were added. In all the experiments, the various drug-solvents (EtOH, DMSO) were added in each control to evaluate possible solvent cytotoxicity. After the established incubation time with drugs (48 h), MTT (0.5 mg/mL) was added to each well, and after 3–4 h incubation at 37 °C, the supernatant was removed. The formazan crystals were solubilized using 100 μL of DMSO/EtOH (1:1, v/v) and the absorbance values at 570 and 630 nm were determined on the microplate reader Victor 3 (PerkinElmer Life Sciences, Waltham, MA, USA).

dopamine D2s receptor = dopamine D2s receptor (Homo sapiens, UniProt P14416); test: Dopamine D2s receptor competition binding ([3H]spiperone)
Chain of dopamine D2s receptor (P14416 1-414 isoform P14416-2): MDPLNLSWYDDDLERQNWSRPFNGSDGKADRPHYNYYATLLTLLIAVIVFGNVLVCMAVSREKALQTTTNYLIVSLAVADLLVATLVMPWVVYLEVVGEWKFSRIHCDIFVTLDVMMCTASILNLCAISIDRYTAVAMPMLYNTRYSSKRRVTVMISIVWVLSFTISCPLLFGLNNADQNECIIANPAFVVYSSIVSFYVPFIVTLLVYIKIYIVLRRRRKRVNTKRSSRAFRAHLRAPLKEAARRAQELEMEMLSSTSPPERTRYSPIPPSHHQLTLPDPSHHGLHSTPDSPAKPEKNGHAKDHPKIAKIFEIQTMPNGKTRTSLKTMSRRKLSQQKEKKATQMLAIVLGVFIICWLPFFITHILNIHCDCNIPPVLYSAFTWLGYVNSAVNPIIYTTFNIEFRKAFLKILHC
Method: Competition binding experiments at dopamine D2s and D3 receptor were performed to determine the affinity of the compounds. […] Membrane preparations of transfected CHO-K1 cells stably expressing the human D2s or D3 receptor were performed according to Bautista-Aguilera et al. [26]. The competition binding experiments were conducted as previously reported [26, 27]. Briefly, membrane fractions (D2sR: 25 µg/200 µL; D3R: 20 µg/200 µL) were incubated with [^3H]spiperone (0.2 nM) and test compound for 120 min at room temperature. […] Non-specific binding was determined in the presence of 10 µM haloperidol. Haloperidol was also used as reference compound. Separation of the bound ligand from the free ligand was conducted by filtration through GF/B filters using deionized water.

dopamine D1 receptor = target: T1, dopamine D1 receptor (Homo sapiens, UniProt P21728); test: Dopamine D1 receptor competition binding ([3H]-SCH23390); settings: HEK-293 membranes, [3H]-SCH23390 0.3 nM, mean (CI 95%), read-out: Affinity Ki D1
T1 construct: expressed in transfected cells
T1 sequence (P21728 whole entry): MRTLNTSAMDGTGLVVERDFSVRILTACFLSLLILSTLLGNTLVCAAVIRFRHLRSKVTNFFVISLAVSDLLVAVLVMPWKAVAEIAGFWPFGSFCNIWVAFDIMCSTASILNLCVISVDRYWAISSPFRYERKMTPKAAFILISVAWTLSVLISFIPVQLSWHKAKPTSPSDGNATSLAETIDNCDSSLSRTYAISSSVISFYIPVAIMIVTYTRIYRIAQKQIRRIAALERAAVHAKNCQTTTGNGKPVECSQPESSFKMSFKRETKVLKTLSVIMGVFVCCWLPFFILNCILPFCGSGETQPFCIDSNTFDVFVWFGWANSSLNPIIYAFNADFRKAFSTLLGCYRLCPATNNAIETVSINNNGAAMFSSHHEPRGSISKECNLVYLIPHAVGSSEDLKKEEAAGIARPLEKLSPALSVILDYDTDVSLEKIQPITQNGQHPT
Method: (§1) The final compounds were tested for their affinity at serotonin 5-HT1A, 5-HT2A, and 5-HT7 receptors and at dopamine D1, D2, D3, and D5 receptors. As a first step, competition radioligand binding assays were carried out for all the compounds at the single concentration of 10 µM, on membrane preparations from stable cell lines heterologously expressing the human cloned 5-HT1A, 5-HT2A, or 5-HT7 receptors. […] For the affinity determination at dopamine receptor subtypes, membrane fractions of human dopamine D2s, D3, D1, and D5 receptor-expressing cells were used. They were co-incubated with [^3H]spiperone (for D2s and D3 receptor) or [^3H]SCH23390 (for D1 and D5 receptor) and appropriate concentrations of test compound for 120 min. Bound radioligand was separated from the free ligand using filtration. Radioactivity was measured by liquid scintillation counting.
The affinity for dopamine D1 and D5 receptors was evaluated in membrane fractions of HEK-293 cells stably expressing the human dopamine D1 or D5 receptor. HEK-293-D1 cells were cultured in DMEM/F12 (15 mM HEPES, 1.2 g/L NaHCO3) with 10% (v/v) FBS and 1% (v/v) L-glutamine. HEK-293-D5 cells were cultured in DMEM/F12 (with L-glutamine, 1.2 g/L NaHCO3) with 20% (v/v) FBS. Preparation of membrane fractions and radioligand competition assays were performed as previously described. Briefly, membrane fractions were co-incubated with [^3H]-SCH23390 (0.3 nM) and different concentrations of test compound for 120 min at room temperature. Fluphenazine (100 µM) was used to determine non-specific binding and as reference compound.
Data of at least three independent experiments in triplicate were analyzed using GraphPad Prism 8.1 (San Diego, CA, USA). Binding curves were fitted to a non-linear regression model (one-site competition). Ki values were calculated from IC50 values using the Cheng–Prusoff equation. The statistical calculations were performed on –log(Ki).

[2] = target: T2, serotonin 5-HT1A receptor (Homo sapiens, UniProt P08908); test: 5-HT1A receptor radioligand competition binding ([3H]-8-Hydroxy-DPAT); settings: for Ki ratio of the trimethylene and tetramethylene homologs at 5-HT1A: Ki of a (trimethylene) / Ki of b (tetramethylene) homolog, given as a/b; for Ki: human cloned receptor, HEK293 membranes, 1 nM [3H]-8-Hydroxy-DPAT, ± S.E.M., n = 3 in duplicate, read-out: Affinity Ki 5-HT1A
T2 construct: expressed in transfected cells
T2 sequence (P08908 1-422): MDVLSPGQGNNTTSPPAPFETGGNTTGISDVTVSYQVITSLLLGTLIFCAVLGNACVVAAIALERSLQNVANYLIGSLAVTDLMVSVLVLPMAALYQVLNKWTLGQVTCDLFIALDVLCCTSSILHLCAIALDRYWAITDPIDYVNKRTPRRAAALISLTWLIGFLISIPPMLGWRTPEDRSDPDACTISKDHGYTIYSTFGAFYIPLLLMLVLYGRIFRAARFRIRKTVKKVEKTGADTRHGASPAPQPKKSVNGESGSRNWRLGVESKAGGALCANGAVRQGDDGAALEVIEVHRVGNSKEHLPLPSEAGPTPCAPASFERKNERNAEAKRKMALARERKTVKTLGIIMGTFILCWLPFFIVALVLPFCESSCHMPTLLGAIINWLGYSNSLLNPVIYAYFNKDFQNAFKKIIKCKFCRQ
Method: as §1, with “As” for “The final compounds were tested for their affinity at serotonin 5-HT1A, 5-HT2A, and 5-HT7 receptors and at dopamine D1, D2, D3, and D5 receptors. As”
The affinity of the compounds for serotonin 5-HT1A receptor was evaluated in membrane preparations from HEK293 cells stably expressing the human cloned receptor, following previously described procedures with minor modifications. Competition binding experiments were performed using 1 nM [^3H]-8-Hydroxy-DPAT (1 mCi/mL, PerkinElmer NET929250UC) as radioligand. Nonspecific binding was assessed in the presence of 10 µM serotonin. […] Assays were carried out in duplicate in 96-well assay plates, in assay buffer (50 mM Tris-HCl, 5 mM MgSO4, pH = 7.4). Assay mixtures were incubated at 37 °C for 120 min, followed by filtration through GF/C glass filter plates, and washed with ice-cold wash buffer (50 mM Tris-HCl, pH = 7.4).

SMILES | EC50 at 48 h [1] [nM] | Ki (dopamine D2s receptor) [nM] | Ki (dopamine D1 receptor) [nM] | Ki ratio of the trimethylene and tetramethylene homologs at 5-HT1A [2] | Ki [2]
CC1Oc2ccc(OCCCN3CCN(c4ncccc4-c4ccncc4)CC3)cc2NC1=O (stereo not drawn) [Compound 8a, 6-(3-(4-([3,4’-Bipyridin]-2-yl)piperazin-1-yl)propoxy)-2-methyl-2H-benzo[b][1,4]oxazin-3(4H)-one] | 32900 ± 3500 | 388 | 6290 | 0.7 | < 17.6 nM and 13.1 nM
CC1Oc2ccc(OCCCCN3CCN(c4ncccc4-c4ccncc4)CC3)cc2NC1=O (stereo not drawn) [Compound 8b, 6-(4-(4-([3,4’-Bipyridin]-2-yl)piperazin-1-yl)butoxy)-2-methyl-2H-benzo[b][1,4]oxazin-3(4H)-one] | 25500 ± 2200 | 9.08 | 1710 |  | < 17.6 nM and 17.6 nM
COc1ccc(-c2cc(F)ccc2N2CCN(CCCCn3ncc(=O)n(C)c3=O)CC2)cc1 [Compound 9b, 2-(4-(4-(5-Fluoro-4’-methoxy-[1,1’-biphenyl]-2-yl)piperazin-1-yl)butyl)-4-methyl-1,2,4-triazine-3,5(2H,4H)-dione] | 51900 ± 4300 | > 10000 | 88.3 |  | 23.9 ± 4.9 nM
Cn1c(=O)cnn(CCCN2CCN(c3ccc(F)cc3-c3ccc(C#N)cc3)CC2)c1=O [Compound 10a, 5’-Fluoro-2’-(4-(3-(4-methyl-3,5-dioxo-4,5-dihydro-1,2,4-triazin-2(3H)-yl)propyl)piperazin-1-yl)-[1,1’-biphenyl]-4-carbonitrile] | 28200 ± 3200 | > 10000 | 104 |  | 1090 ± 154 nM
Cn1c(=O)cnn(CCCCN2CCN(c3ccc(F)cc3-c3ccc(C#N)cc3)CC2)c1=O [Compound 10b, 5’-Fluoro-2’-(4-(4-(4-methyl-3,5-dioxo-4,5-dihydro-1,2,4-triazin-2(3H)-yl)butyl)piperazin-1-yl)-[1,1’-biphenyl]-4-carbonitrile] | 34300 ± 2500 | > 10000 | 140 |  | 43.4 ± 6.2 nM
Cn1c(=O)cnn(CCCN2CCN(c3ncccc3-c3ccncc3)CC2)c1=O [Compound 11a, 2-(3-(4-([3,4’-Bipyridin]-2-yl)piperazin-1-yl)propyl)-4-methyl-1,2,4-triazine-3,5(2H,4H)-dione] | > 100000 | > 10000 | > 10000 | 52 | 269 ± 18 nM
Cn1c(=O)cnn(CCCCN2CCN(c3ncccc3-c3ccncc3)CC2)c1=O [Compound 11b, 2-(4-(4-([3,4’-Bipyridin]-2-yl)piperazin-1-yl)butyl)-4-methyl-1,2,4-triazine-3,5(2H,4H)-dione] | > 100000 | > 10000 | > 10000 |  | < 17.6 nM and 5.19 nM
Cc1cc(=O)oc2cc(OCCCN3CCN(c4ncccc4-c4ccncc4)CC3)ccc12 [Compound 12a, 7-(3-(4-([3,4’-Bipyridin]-2-yl)piperazin-1-yl)propoxy)-4-methyl-2H-chromen-2-one] | 35200 ± 4100 | 300 | 2200 | 3.7 | 41.5 ± 3 nM
Cc1cc(=O)oc2cc(OCCCCN3CCN(c4ncccc4-c4ccncc4)CC3)ccc12 [Compound 12b, 7-(4-(4-([3,4’-Bipyridin]-2-yl)piperazin-1-yl)butoxy)-4-methyl-2H-chromen-2-one] | 47900 ± 3500 | 17 | 1530 |  | < 17.6 nM and 11.3 nM
